Assay: Stability of oligonucleotides in anhydrous TFA simulating Edman peptide cleavage conditions (HPLC)
Type: physicochemical
Conditions: 1 hr in anhydrous TFA (DMSO/TFA, 45 deg C), FIG. 40
Procedure: A deprotected 15mer DNA oligonucleotide (CCTGTTGTCAATGAG, Sys #003, LO1) (SEQ ID NO: 126) was obtained from Integrated DNA Technologies. Cleavage, deprotection, and desalting were performed by IDT using their standard process. It was resuspended in Mol Bio grade H2O at 160 μM and a 40 μL aliquot was dried (Eppindorf, Vacufuge+, 45° C. for ˜2 hrs) prior to subjecting to Edman cleavage chemistry. The deprotected oligonucleotide material used for the baseline measurement was resuspended as above, but not dried.
A protected DNA oligonucleotide (5Phos/ATGAGTG/iFormInd/AGGGAAATAGCTTCTGGT CGAACTAGTTGTTCGTCAA/idSp/TTTCTTT, Sys #001, SOCAB) (SEQ ID NO: 125) was liberated from CPG support using EndoIV (NEB, M0304) and desalted (Zymo) to provide five 60 μL aliquots at 70 μM of/5Phos/ATGAGTG/iFormInd/[…] (SEQ ID NO: 75), which were dried as described above. The protected oligonucleotide material used for the baseline measurement was desalted as above, but not dried.
In anhydrous environment 40 μL of DMSO was added to each dried aliquot. Following disolution 40 μL TFA was added to each. Solutions were incubated at 45 deg C. for 0 mins, 30 mins, 60 mins, 4 hrs, and overnight. Samples were neutralized by addition of 228 μL of 4.1M imidazole solution at the conclusion of their incubation period. HPLC chromatograms were collected for each sample.

protected oligos: protected DNA oligonucleotide liberated from CPG support, /5Phos/ATGAGTG/iFormInd/AGGGAAATAGCTTCTGGTCGAACTAGTTGTTCGTCAA (SEQ ID NO: 75) (DNA ATGAGTGNAGGGAAATAGCTTCTGGTCGAACTAGTTGTTCGTCAA; 5' phosphate, internal formylindole, protecting groups; modified_base 1 OTHER; 5' phosphorylated nucleotide; modified_base 8 OTHER; Formylindole modified nucleotide)
HPLC peak after exposure to anhydrous TFA: largely unchanged
